Assay results from patent US12084451B2, “Compositions and methods for reducing tactile dysfunction, anxiety, and social impairment” (President and Fellows of Harvard College, priority 2018, dated 2024).
Like-named read-outs stand apart in the source and are kept apart here.

Columns and labels:
Type in all cases: cell-based
[1] = biological target: T1, hGABAA α1β3γ2 (Homo sapiens, UniProt P14867+P18507+P28472); test: hGABAA IonFlux HT PAM Assay, α1β3γ2; settings: for Mean Maximal Effect (% of Control): normalized to baseline peak current induced by EC20 GABA (1 μM) for 2 seconds
T1 sequence (P14867 28-456): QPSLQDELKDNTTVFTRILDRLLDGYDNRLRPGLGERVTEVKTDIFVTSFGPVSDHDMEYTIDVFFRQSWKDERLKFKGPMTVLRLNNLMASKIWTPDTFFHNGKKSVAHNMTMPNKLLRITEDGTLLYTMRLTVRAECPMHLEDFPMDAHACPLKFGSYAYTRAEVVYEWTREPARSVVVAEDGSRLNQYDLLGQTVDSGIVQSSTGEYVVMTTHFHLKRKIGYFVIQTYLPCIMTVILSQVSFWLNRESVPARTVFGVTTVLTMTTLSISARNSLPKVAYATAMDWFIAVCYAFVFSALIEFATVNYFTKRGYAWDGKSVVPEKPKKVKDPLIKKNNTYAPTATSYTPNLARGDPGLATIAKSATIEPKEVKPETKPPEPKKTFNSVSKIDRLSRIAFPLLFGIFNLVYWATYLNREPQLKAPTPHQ
T1 sequence (P28472 26-473): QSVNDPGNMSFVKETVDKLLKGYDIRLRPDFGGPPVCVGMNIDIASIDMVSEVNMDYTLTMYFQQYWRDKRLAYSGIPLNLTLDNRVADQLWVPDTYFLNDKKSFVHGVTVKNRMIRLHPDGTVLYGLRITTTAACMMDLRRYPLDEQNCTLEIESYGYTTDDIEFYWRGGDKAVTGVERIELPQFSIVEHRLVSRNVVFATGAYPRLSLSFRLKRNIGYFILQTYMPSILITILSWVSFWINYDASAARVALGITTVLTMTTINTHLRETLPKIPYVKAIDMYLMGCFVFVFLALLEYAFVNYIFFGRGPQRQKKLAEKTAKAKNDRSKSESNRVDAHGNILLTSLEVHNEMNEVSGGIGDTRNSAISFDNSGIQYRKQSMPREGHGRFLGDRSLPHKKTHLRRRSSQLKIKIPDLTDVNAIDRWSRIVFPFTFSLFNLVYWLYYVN
T1 sequence (P18507 40-475): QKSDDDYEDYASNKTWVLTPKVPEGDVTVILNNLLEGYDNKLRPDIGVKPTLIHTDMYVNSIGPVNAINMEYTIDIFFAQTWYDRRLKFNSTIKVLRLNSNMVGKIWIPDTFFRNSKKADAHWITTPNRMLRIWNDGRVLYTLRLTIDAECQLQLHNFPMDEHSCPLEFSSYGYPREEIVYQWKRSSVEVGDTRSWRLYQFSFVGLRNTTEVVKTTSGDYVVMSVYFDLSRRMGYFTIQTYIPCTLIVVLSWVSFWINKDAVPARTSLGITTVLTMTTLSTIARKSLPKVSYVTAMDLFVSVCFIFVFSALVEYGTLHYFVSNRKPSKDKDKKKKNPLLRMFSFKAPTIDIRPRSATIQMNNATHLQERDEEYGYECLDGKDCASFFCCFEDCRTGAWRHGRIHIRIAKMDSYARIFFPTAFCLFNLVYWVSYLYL
Description: (§1) Ligand-gated ion channels targeted were hGABAA α1β3γ2 and hGABAA α2β3γ2.
(§2) Electrophysiological assays conducted to profile nine (9) compounds for activities on the on channel targets listed above for Positive Allosteric Modulator (PAM) activities using the IonFlux HT electrophysiological platform.
The parameters measured are described in the Data Analysis section.
(§3) All wells included a final DMSO concentration of 0.33% including all control wells.
(§4) All recordings were obtained from a holding potential of −60 mV. The compound addition sequence that was used for all additions was the same for all assays. […] The process was repeated with the next ascending concentration of test compound (FIG. 1).
(§5) All data were first exported to an Excel compatible data file and then analyzed using Graph Pad Prism software.

[2] = biological target: hGABAA α2β3γ2 (Homo sapiens, UniProt P18507+P28472+P47869); test: hGABAA IonFlux HT PAM Assay, α2β3γ2; settings: for Mean Maximal Effect (% of Control): normalized to baseline peak current induced by EC20 GABA (0.8 μM) for 2 seconds; for EC50: read-out: Estimated EC50
Sequence of hGABAA α2β3γ2 (P47869 29-451): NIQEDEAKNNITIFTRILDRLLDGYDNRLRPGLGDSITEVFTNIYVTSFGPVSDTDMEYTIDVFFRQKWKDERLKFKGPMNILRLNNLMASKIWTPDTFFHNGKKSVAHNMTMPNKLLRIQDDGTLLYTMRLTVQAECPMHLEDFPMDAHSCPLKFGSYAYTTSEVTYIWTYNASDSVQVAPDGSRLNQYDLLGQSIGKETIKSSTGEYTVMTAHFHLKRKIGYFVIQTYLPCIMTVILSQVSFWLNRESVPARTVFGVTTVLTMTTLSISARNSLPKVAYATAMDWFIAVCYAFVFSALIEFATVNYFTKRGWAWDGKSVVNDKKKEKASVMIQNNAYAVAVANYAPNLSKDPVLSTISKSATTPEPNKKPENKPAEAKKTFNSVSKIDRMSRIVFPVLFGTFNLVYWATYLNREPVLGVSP
Sequence of hGABAA α2β3γ2 (P28472 26-473): as the sequence (P28472 26-473) above
Sequence of hGABAA α2β3γ2 (P18507 40-475): as the sequence (P18507 40-475) above
Description: as §1, §2
The parameters measured are described in the Data Analysis section. […] Open circles represent data that has been excluded from the curve fitting. Where no curve fit was possible, n/c (not calculable) is listed.
as §3, §4, §5

[3] = biological target: T1, hGABAA α1β3γ2; test: hGABAA α1β3γ2 IonFlux HT Agonist Assay; parameters: activation of hGABAA α1β3γ2 ion channel currents / activation: dose or concentration left out as unconfirmed; settings: for activation / activation at 0.3 µM / activation at 1 µM / activation at 3 µM / activation at 10 µM / activation at 30 µM / activation at 100 µM / activation at 300 µM: read-out: Normalized Percentage Activation Mean
Procedure: Ligand-gated ion channel targets were hGABAA α2β3γ2 and hGABAA α1β3γ2. Electrophysiological assays conducted to profile two compounds for agonist activities on hGABAA α2β3γ2 and seven compounds for agonist activities on hGABAA α1β3γ2 using the IonFlux HT electrophysiological platform.
The parameters measured are described in the Data Analysis section. […] Note: The test compounds was applied over two (2) ‘experimental patterns’ in increasing concentrations.
The supplied compound was prepared in DMSO to concentrations that were 300× the final assay concentrations. Aliquots were taken out and diluted 300× into external buffer to give the final assay concentration. At wells included a final DMSO concentration of 0.33% including all control wets.
All recordings were obtained from a holding potential of −60 mV. The compound addition sequence that was used for all additions was the same for all assays. […] Each test concentration of compound was applied for 2 seconds followed by 60 seconds wash. The process was repeated with the next ascending concentration of test compound. The test compounds were applied over two (2) ‘experimental patterns’ in increasing concentrations (FIG. 11).
AM data were first exported to an Excel compatible data file and then analyzed using Graph Pad Prism software.

[4] = agonist activation of channel currents, read-out: Estimated EC50

Row | SMILES | Mean Maximal Effect (% of Control) [1] | EC50 ([1]; read-out: Estimated EC50) | Mean Maximal Effect (% of Control) [2] | EC50 [2] | activation of hGABAA α1β3γ2 ion channel currents [3] | EC50 [3, 4] | activation [3] | activation at 0.3 µM [3] | activation at 1 µM [3] | activation at 3 µM [3] | activation at 10 µM [3] | activation at 30 µM [3] | activation at 100 µM [3] | activation at 300 µM [3] | EC50 ([1]; Estimated EC50, positive modulation of EC20 GABA current) | EC50 ([2]; positive modulation of EC20 GABA current) | EC50 [3]
1 | CNCCN(C)C(=O)Cc1c(-c2ccc(C)cc2)nc2ccc(C)cn12 [Compound 1] | 282 % of Control | 654 nM | 181 % of Control | 3000 nM | did not activate | > 1 mM | 4.98% | 1.64% | 1.39% | 2.34% | 6.52% | 4.78% | 6.97% | 7.15% |  |  | 
2 | CCCN(CCNC)C(=O)Cc1c(-c2ccc(C)cc2)nc2ccc(C)cn12 [Compound 2] | 354 % of Control | 446 nM | 248 % of Control | 2000 nM | did not activate | > 1 mM | 3.48% | 2.17% | 1.99% | 2.79% | 5.37% | 5.93% | 7.1% | 3.63% |  |  | 
3 | CCCN(CCNC)C(=O)Cc1c(-c2ccc(Cl)cc2)nc2ccc(Cl)cn12 [Compound 3] | 331 % of Control |  | 240 % of Control |  | did not activate |  | 3.53% | 1.99% | 1.9% | 2.32% | 6.3% | 2.98% | 3.63% | 8.78% | 81 nM | 1100 nM | > 1 mM
